Tests used:
[1] = tested on: telomerase RNA component (TERC); settings: cited from earlier work
[2] = tested on: EGFPCAG78-expressing SK-N-MC cells; assay: LDH cell death assay, EGFPCAG78-expressing SK-N-MC cells; format: cell-based
Protocol: SK-N-MC cells (ATCC) were cultured in DMEM (GE Healthcare BioSciences) supplemented with 10% fetal bovine serum and 1% penicillin-streptomycin. Cells were maintained in a 37° C. humidified cell culture incubator supplemented with 5% CO2. Plasmid DNA and siRNA/synthetic miRNA transfection was performed using Lipofectamine 2000 (Thermo Fisher Scientific) and Lipofectamine RNAiMAX (Thermo Fisher Scientific), respectively.
The LDH assay on SK-N-MC cells were performed according to manufacturer's instructions (CytoTox 96 Non-Radioactive Cytotoxicity Assay Kit, Promega).

[3] = tested on: JNK phosphorylation and caspase 3 cleavage in EGFP-Htt1-550CAG89-expressing neurons; assay: Western blotting, EGFP-Htt1-550CAG89-expressing primary cortical neurons; format: cell-based, mouse
Protocol: E16-embryos of C57BL6J wildtype mice were sacrificed to obtain the mouse primary cortical neurons as previously described (Peng et al., 2021). In brief, cortical lobes were dissected out in ice-cold PBS-glucose. Meninges were removed and cortices were digested in trypsin solution. Primary cortical neurons were cultured on poly-[…]-coated (0.05 mg/ml) glass coverslips in 24-well plates (50,000 cells per well) and maintained in a 37° C. humidified cell culture incubator supplemented with 5% CO2. Prior to transfection and drug treatment, neurons were cultured for 5 days. Mature primary neurons were transfected with DNA constructs together with Lipofectamine LTX and Plus Reagent (Thermo Fisher Scientific). Following the manufacturer's protocol, at 4 hours post-transfection culture medium was refreshed and 400 nM of BCH001 was added to the medium. Neurons were further incubated for 72 hours to allow recovery and ectopic expression. Proteins were extracted from SK-N-MC cells or mouse primary cortical neurons using SDS sample buffer. For protein extraction from mice, half of the brain was homogenized in protein lysis buffer (50 mM Tris-HCl, pH 7.6, 150 mM NaCl, 10% NP40, 5% sodium deoxycholate). All protein samples were boiled at 99° C. for 10 minutes, prior to Western blotting. […]

[4] = tested on: HttQ93-induced retinal neurodegeneration; assay: Pseudopupil assay, HttQ93 Drosophila model of Huntington's Disease; format: in vivo; settings: 10 uM BCH001, gmr-GAL4 driver
Protocol: Fly lines gmr-Gal4 (Ellis et al., 1993), UAS-DsRedCAG0/100 (Li et al., 2008), UAS-Htt exon1Q93 (Steffan et al., 2001), UAS-flMJDQ27/84 (Warrick et al., 2005), UASCTG60/480 (Garcia-Lopez et al., 2008) and UAS-EGFP-CGG90 (Jin et al., 2003) were described previously. The UAS-PAPD5 dsRNA line (GD19799, GD41096, and GD45261) was obtained from Vienna Drosophila RNAi Center. All flies were maintained in cornmeal culture medium and genetic crosses were set up in a 21.5° C. incubator (LMS, Sevenoaks, Kent, UK).
12 days-post-eclosion (dpe) adult flies were used for the pseudopupil assay as described previously (Wong et al., 2008). Each fly eye was examined using an Olympus CX31 stereomicroscope. The images of ommatidia were captured using a SPOT Insight CCD camera (Diagnostic instruments Inc., Sterling Heights, MI, USA), and all images were processed using the SPOT Advanced software (Version 5.2; Diagnostic instruments Inc., Sterling Heights, MI, USA) and Photoshop 2020 (Adobe Systems). Two hundred ommatidia collected from 20 individual fly eyes were examined for each condition and used for statistical analysis. The average number of rhabdomeres per ommatidia was presented as the indication of ommatidial integrity.

[5] = tested on: EGFP-Htt1-550CAG89-expressing mouse primary cortical neurons; assay: Immunocytochemistry of synaptic markers and neurites, EGFP-Htt1-550CAG89-expressing primary cortical neurons; format: cell-based; settings: 400 nM BCH001, 72 hours
Protocol: E16-embryos of C57BL6J wildtype mice were sacrificed to obtain the mouse primary cortical neurons as previously described (Peng et al., 2021). In brief, cortical lobes were dissected out in ice-cold PBS-glucose. Meninges were removed and cortices were digested in trypsin solution. Primary cortical neurons were cultured on poly-[…]-coated (0.05 mg/ml) glass coverslips in 24-well plates (50,000 cells per well) and maintained in a 37° C. humidified cell culture incubator supplemented with 5% CO2. Prior to transfection and drug treatment, neurons were cultured for 5 days. Mature primary neurons were transfected with DNA constructs together with Lipofectamine LTX and Plus Reagent (Thermo Fisher Scientific). Following the manufacturer's protocol, at 4 hours post-transfection culture medium was refreshed and 400 nM of BCH001 was added to the medium. Neurons were further incubated for 72 hours to allow recovery and ectopic expression. Neurons were fixed with 4% paraformaldehyde for 10 minutes, followed by permeabilization (0.2% Triton X-100) for another 10 minutes and blocking (1% BSA) for 1 hour at room temperature. Primary antibody incubation was performed in 1% BSA overnight at 4° C. After washing steps, neurons were incubated with secondary antibodies in 1% BSA in dark for 1 hour at room temperature. Samples were counterstained with 1 μg/ml 4,6-diamidino-2-phenylindole (DAPI) solution for nuclei visualization and then washed with PBS, followed by mounting and examined under a confocal microscope (Leica TCS SP8 high speed imaging system). To examine the neurite arborization and quantify the synaptic markers, primary neurons were stained with MAP2 (1:10,000; ab5392, Abcam) and Synapsin I (1:200; ab8, Abcam), Bassoon (1:200; ab110426, Abcam) or Homer1 (1:200; ab97593, Abcam) antibodies. The z stacked maximal projected images were used for statistical analyses using Photoshop 2020 (Adobe Systems). Ten EGFP-positive neurons per replica were used for the statistical analysis.

## CCOC(=O)c1cnc2ccc(OC(F)(F)F)cc2c1Nc1ccccc1C(=O)O [BCH001]
[1]
  3' adenylation of telomerase RNA component (TERC): reduced
[2]
  mutant CAG RNA (EGFPCAG78)-induced cell death: completely suppressed
[2]; Homo sapiens, FIG. 11, read-out: IC50 of suppression of EGFPCAG78-induced cell death
  IC50: 0.0147 µM
[3]
  JNK phosphorylation: attenuated
  caspase 3 cleavage: attenuated
[4]
  HttQ93-induced retinal neurodegeneration (rhabdomere numbers): marked suppression
[5]
  neurites (primary, secondary, tertiary): recovered to their control levels
  puncta number of Bassoon: restoration
  puncta number of Homer1: restoration
  puncta number of Synapsin I: restoration
  synaptic defects: fully rescued

Reference: patent US20260183276A1, “miRNA DYSREGULATION CORRECTION AS A STRATEGY TO TREAT HUNTINGTON'S DISEASE” (The Chinese University of Hong Kong, priority 2022, published 2026)
